These substances were tested on male Sprague-Dawley rats (ca. 300 g) rendered diabetic by streptozotocin (assay: Biological activity and pharmacodynamics (blood glucose over time) after subcutaneous injection in diabetic rats). Conditions: premixed clear solution of SCI-A and SCI-B, unbuffered, pH 4.0, FIGS. 8-10.
Type: in vivo, rat
Experimental: FIG. 7 is a graph showing blood glucose levels over time for diabetic rats (time 0 blood glucose of 375±20 mg/dl) injected subcutaneously with indicated analogue/300 g body weight.
FIG. 8 is a graph showing blood glucose levels over time for diabetic rats (time 0 blood glucose of 350-400 [±20 mg/dl]) injected subcutaneously with 1 unit of the indicated analog/300 g body weight. ( ? ) diluent control; (●) an SCI-A (SEQ ID NO: 5); (●) an example of an SCI-B (SEQ ID NO: 6) as formulated at neutral pH; and (♦) equimolar premixed clear solution of this SCI-A and this specific SCI-B as formulated in soluble form in an unbuffered solution at pH 4.0. Respective doses: 20 μg of each protein per 300 gram rat (singly); 20 μg and 20 μg in the case of the premixed solution to a total [SCI-A+SCI-B] combined dose of 40 μg.
FIG. 9 is a graph showing blood glucose levels over time for diabetic rats (time 0 blood glucose of 400±20 mg/dl) injected subcutaneously with indicated analogue/300 g body weight. […] Respective doses: 0.75 units SCI-A, 0.25 units SCI-B; and premixture of 0.75 units SCI-A and 0.25 units SCI-B.
FIG. 10 is a graph showing blood glucose levels over time for diabetic rats (time 0 blood glucose of 385±20 mg/dl) injected subcutaneously with indicated analogue/300 g body weight. […] Respective doses: 0.75 units SCI-A, 0.25 units SCI-B; and premixture of 0.75 units SCI-A and 0.25 units SCI-B.
Biological activity and pharmacodynamics were tested in male Sprague-Dawley rats (ca. 300 g) rendered diabetic by streptozotocin (FIG. 7).
Each of the three SCI-B analogues contained a six-residue C domain and an A-domain substitution known in the art to enhance stability and receptor-binding affinity (HisA8). The first SCI-B (SEQ ID NO: 6; FIG. 8) contained C domain sequence EEGPRR (positions 31-36). This analogue also contained insulin-moiety substitutions GluA14 and GluB29. The second example of an SCI-B (SEQ ID NO: 7; FIG. 9) contained C domain sequence EAAAAA (positions 31-36) and insulin-moiety substitutions GluA14, AspB28 and ProB29. […]
In the case of “SEQ ID NO: 6: single-chain insulin analogue SCI-B, C domain EEGPRR, substitutions GluA14 and GluB29; rapid-acting component (FVNQHLCGSHLVEALYLVCGERGFFYTPETEEGPRRGIVEQCCTSICSLEQLENYCN)”, the “effect of premixed SCI-A (SEQ ID NO: 5) on the rapid initial phase of insulin action of the SCI-B component” value is reported as “did not blunt or prevent the premixed SCI-B component from directing a rapid initial phase of insulin action”. For “SEQ ID NO: 8: single-chain insulin analogue SCI-B, C domain EAAARA, substitutions GluA14, AspB28 and ProB29 (FVNQHLCGSHLVEALYLVCGERGFFYTDPTEAAARAGIVEQCCTSICSLEQLENYCN)”, the “effect of premixed SCI-A (SEQ ID NO: 5) on the rapid initial phase of insulin action of the SCI-B component” value was “did not blunt or prevent the premixed SCI-B component from directing a rapid initial phase of insulin action”. In the case of “SEQ ID NO: 7: single-chain insulin analogue SCI-B, C domain EAAAAA, substitutions GluA14, AspB28 and ProB29 (FVNQHLCGSHLVEALYLVCGERGFFYTDPTEAAAAAGIVEQCCTSICSLEQLENYCN)”, the “effect of premixed SCI-A (SEQ ID NO: 5) on the rapid initial phase of insulin action of the SCI-B component” value is reported as “did not blunt or prevent the premixed SCI-B component from directing a rapid initial phase of insulin action”.

— patent publication US20220280614A1 (CASE WESTERN RESERVE UNIVERSITY, priority 2019, published 2022)
